Where a name gives a salt, the structure may show the parent alone.
Tested on: NF-kB activation induced by TNFα
Test: TNFα Luciferase assay: inhibition of NF-kB activation induced by TNFα in HEK293/NF-kB luciferase cells
Format: cell-based
Settings: Homo sapiens, 4 h, 25 ng/ml of TNF-α for four hours, quadruplicate, read-out: IC50, concentration at which NF-kB activation was reduced by 50%
Method: Determination of Inhibition of NF-kB Activation Induced by TNFα . . . In Vitro Assay
The ability of a compound disclosed herein to inhibit NFkB activation induced by TNFα was determined using the TNFα Luciferase assay. The HEK293/NF-kB luciferase cell line was obtained by cotransfection of pNFkB-luc vector with pHyg (Panomics, CA, USA) followed by hygromycin selection. HEK293/NFkB Luciferase cells were grown in DMEM medium supplemented with 10% fetal bovine serum, 100 U/ml of penicillin, 100 ng/ml of streptomycin/Fungizone, and 100 μg/ml of hygromycin B as the selecting agent. HEK293 NFkB Luciferase cells were grown in T75 flasks (Nunc™ Cell Culture Treated EasYFlasks™) in a cell culture incubator at 37° C. and 5% CO2.
Confluent T75 cell culture flasks (approximately 8-10 million of cells per flask) were washed with 10 ml of sterile PBS (without calcium and magnesium) under a biosafety cabinet. After aspiration of the PBS with a sterile glass pipette, the layer of cells (for each T75 flask) was covered with 1 ml of TrypLE™ Express without phenol red (Gibco) at room temperature. After one minute of incubation, HEK293 were mechanically resuspended in the TrypLE by tapping the side of the flask. The cells were then resuspended with 10 ml of pre-warmed complete culture medium and transferred to a conical tube. Cells were centrifuged for 5 minutes at 4000 rpm (1000 g) at room temperature. The cellular pellet was resuspended with 24 ml of pre-warmed cell culture media and […] of cell suspension (approximately 80,000 cells per well) was plated per well in 96-well cell culture plates (Costar #3599, Corning, N.Y., USA) using a multichannel pipette and reversed pipetting to prevent air bubble formation. After plating, the cells were maintained overnight in the cell culture incubator before being treated. For each 96 well cell culture plate, 8 wells were used as “control wells” (only culture medium added) and to 8 wells only TNFα was added. The NF-kB Luciferase reporter cell line was challenged with 25 ng/ml of TNF-α for four hours in the presence and absence (control conditions) of a dose range of the different compounds to be tested. For each compound, a dose range of concentrations was tested in quadruplicate and used to determine an IC50.
Luciferase activity was monitored using the Luc-Screen® Extended-Glow Luciferase Reporter Gene Assay System by chemoluminescence according to the instruction of the manufacturer (Invitrogen) and a BioTek Synergy HT plate reader (BioTek Instruments, VT, USA).

| IC50 [nM] | Structure (SMILES) |
| --- | --- |
| 1600 | COc1cccc(C(=O)N[C@@H](Cc2ccccc2)C(=O)N2CC=CCC2c2cccnc2)c1 (stereo partly drawn) [Compound 35, 3-methoxy-N-((2S)-1-oxo-3-phenyl-1-(6-(pyridin-3-yl)-5,6-dihydropyridin-1(2H)-yl)propan-2-yl)benzamide] |
| 150 | CCCCC(=O)Nc1cccc(C(=O)NC(Cc2ccccc2)C(=O)N2CC=CCC2c2cccnc2)c1 (centres unmarked) [Compound 36, N-(1-oxo-3-phenyl-1-(6-(pyridin-3-yl)-5,6-dihydropyridin-1(2H)-yl)propan-2-yl)-3-pentanamidobenzamide] |
| 125 | CCCC(=O)Nc1cccc(C(=O)NC(Cc2ccccc2)C(=O)N2CC=CCC2c2cccnc2)c1 (centres unmarked) [Compound 37, 3-butyramido-N-(1-oxo-3-phenyl-1-(6-(pyridin-3-yl)-5,6-dihydropyridin-1(2H)-yl)propan-2-yl)benzamide] |
| 250 | Nc1cccc(C(=O)NC(Cc2ccccc2)C(=O)N2CC=CCC2c2cccnc2)c1 (centres unmarked) [Compound 38, 3-amino-N-(1-oxo-3-phenyl-1-(6-(pyridin-3-yl)-5,6-dihydropyridin-1(2H)-yl)propan-2-yl)benzamide] |
| 210 | CC(=O)Nc1cccc(C(=O)NC(Cc2ccccc2)C(=O)N2CC=CCC2c2cccnc2)c1 (centres unmarked) [Compound 39, 3-acetamido-N-(1-oxo-3-phenyl-1-(6-(pyridin-3-yl)-5,6-dihydropyridin-1(2H)-yl)propan-2-yl)benzamide] |
| 40 | CCCC(=O)Nc1cccc(C(=O)NC(Cc2ccccc2)C(=O)N2CC=CCC2c2cnc3ccccc3c2)c1 (centres unmarked) [Compound 40, 3-butyramido-N-(1-oxo-3-phenyl-1-(2-(quinolin-3-yl)-3,6-dihydropyridin-1(2H)-yl)propan-2-yl)benzamide] |
| 250 | O=C(CCCC[C@@H]1SC[C@@H]2NC(=O)N[C@@H]21)Nc1cccc(C(=O)N[C@@H](Cc2ccccc2)C(=O)N2CC=CCC2c2cccnc2)c1 (stereo partly drawn) [Compound 41, 3-{5-[(3aS,4S,6aR)-2-oxo-hexahydro-1H-thieno[3,4-d]imidazol-4-yl]pentanamido}-N-[(2S)-1-oxo-3-phenyl-1-{1,2,3,6-tetrahydro-[2,3′-bipyridin]-1-yl}propan-2-yl]benzamide] |
| 86.9 | CC(C)CC(=O)Nc1cccc(C(=O)N[C@@H](Cc2ccccc2)C(=O)N2CC=CCC2c2cccnc2)c1 (stereo partly drawn) [Compound 42, 3-(3-methylbutanamido)-N-((2S)-1-oxo-3-phenyl-1-(6-(pyridin-3-yl)-5,6-dihydropyridin-1(2H)-yl)propan-2-yl)benzamide] |
| 129 | CC(C)(C)C(=O)Nc1cccc(C(=O)N[C@@H](Cc2ccccc2)C(=O)N2CC=CCC2c2cccnc2)c1 (stereo partly drawn) [Compound 43, N-((2S)-1-oxo-3-phenyl-1-(6-(pyridin-3-yl)-5,6-dihydropyridin-1(2H)-yl)propan-2-yl)-3-pivalamidobenzamide] |
| 80.2 | O=C(N[C@@H](Cc1ccccc1)C(=O)N1CC=CCC1c1cccnc1)c1cccc(NC(=O)C2CC2)c1 (stereo partly drawn) [Compound 44, 3-(cyclopropanecarboxamido)-N-((2S)-1-oxo-3-phenyl-1-(6-(pyridin-3-yl)-5,6-dihydropyridin-1(2H)-yl)propan-2-yl)benzamide] |
| 75.4 | O=C(N[C@@H](Cc1ccccc1)C(=O)N1CC=CCC1c1cccnc1)c1cccc(NC(=O)C2CCC2)c1 (stereo partly drawn) [Compound 45, 3-(cyclobutanecarboxamido)-N-((2S)-1-oxo-3-phenyl-1-(6-(pyridin-3-yl)-5,6-dihydropyridin-1(2H)-yl)propan-2-yl)benzamide] |
| 58.5 | O=C(N[C@@H](Cc1ccccc1)C(=O)N1CC=CCC1c1cccnc1)c1cccc(NC(=O)C2CCCC2)c1 (stereo partly drawn) [Compound 46, 3-(cyclopentanecarboxamido)-N-((2S)-1-oxo-3-phenyl-1-(6-(pyridin-3-yl)-5,6-dihydropyridin-1(2H)-yl)propan-2-yl)benzamide] |
| 159 | CCCC(=O)Nc1ccccc1C(=O)N[C@@H](Cc1ccccc1)C(=O)N1CC=CCC1c1cccnc1 (stereo partly drawn) [Compound 47, 2-butyramido-N-((2S)-1-oxo-3-phenyl-1-(6-(pyridin-3-yl)-5,6-dihydropyridin-1(2H)-yl)propan-2-yl)benzamide] |
| 114 | CCCC(=O)Nc1ccc(C(=O)N[C@@H](Cc2ccccc2)C(=O)N2CC=CCC2c2cccnc2)cc1 (stereo partly drawn) [Compound 48, 4-butyramido-N-((2S)-1-oxo-3-phenyl-1-(6-(pyridin-3-yl)-5,6-dihydropyridin-1(2H)-yl)propan-2-yl)benzamide] |
| 174 | O=C(N[C@@H](Cc1ccccc1)C(=O)N1CC=CCC1c1cccnc1)c1ccc2ccccc2n1 (stereo partly drawn) [Compound 49, N-((2S)-1-oxo-3-phenyl-1-(6-(pyridin-3-yl)-5,6-dihydropyridin-1(2H)-yl)propan-2-yl)quinoline-2-carboxamide] |
| 131 | O=C(N[C@@H](Cc1ccccc1)C(=O)N1CC=CCC1c1cccnc1)c1cnccn1 (stereo partly drawn) [Compound 50, N-((2S)-1-oxo-3-phenyl-1-(6-(pyridin-3-yl)-5,6-dihydropyridin-1(2H)-yl)propan-2-yl)pyrazine-2-carboxamide] |
| 114 | O=C(N[C@@H](Cc1ccccc1)C(=O)N1CC=CCC1c1cccnc1)c1cccnc1 (stereo partly drawn) [Compound 51, N-((2S)-1-oxo-3-phenyl-1-(6-(pyridin-3-yl)-5,6-dihydropyridin-1(2H)-yl)propan-2-yl)nicotinamide] |
| 134 | O=C(N[C@@H](Cc1ccccc1)C(=O)N1CC=CCC1c1cccnc1)c1ccco1 (stereo partly drawn) [Compound 52, N-((2S)-1-oxo-3-phenyl-1-(6-(pyridin-3-yl)-5,6-dihydropyridin-1(2H)-yl)propan-2-yl)furan-2-carboxamide] |
| 212 | NCC(=O)Nc1cccc(C(=O)N[C@@H](Cc2ccccc2)C(=O)N2CC=CCC2c2cccnc2)c1 (stereo partly drawn) [Compound 53, 3-(2-aminoacetamido)-N-((2S)-1-oxo-3-phenyl-1-(6-(pyridin-3-yl)-5,6-dihydropyridin-1(2H)-yl)propan-2-yl)benzamide hydrochloride] |
| 186 | NCCC(=O)Nc1cccc(C(=O)N[C@@H](Cc2ccccc2)C(=O)N2CC=CCC2c2cccnc2)c1 (stereo partly drawn) [Compound 54, 3-(3-aminopropanamido)-N-((2S)-1-oxo-3-phenyl-1-(6-(pyridin-3-yl)-5,6-dihydropyridin-1(2H)-yl)propan-2-yl)benzamide hydrochloride] |
| 170 | NCCCC(=O)Nc1cccc(C(=O)N[C@@H](Cc2ccccc2)C(=O)N2CC=CCC2c2cccnc2)c1 (stereo partly drawn) [Compound 55, 3-(4-aminobutanamido)-N-((2S)-1-oxo-3-phenyl-1-(6-(pyridin-3-yl)-5,6-dihydropyridin-1(2H)-yl)propan-2-yl)benzamide hydrochloride] |
| 968 | O=C(N[C@@H](Cc1ccccc1)C(=O)N1CC=CCC1c1cccnc1)c1ccc[nH]1 (stereo partly drawn) [Compound 56, N-((2S)-1-oxo-3-phenyl-1-(6-(pyridin-3-yl)-5,6-dihydropyridin-1(2H)-yl)propan-2-yl)-1H-pyrrole-2-carboxamide] |
| 121 | CC[C@H](C)C(=O)Nc1cccc(C(=O)N[C@@H](Cc2ccccc2)C(=O)N2CC=CCC2c2cccnc2)c1 (stereo partly drawn) [Compound 57, 3-((S)-2-methylbutanamido)-N-((2S)-1-oxo-3-phenyl-1-(6-(pyridin-3-yl)-5,6-dihydropyridin-1(2H)-yl)propan-2-yl)benzamide] |
